Assays:
[1] = compound: C1CC(C1)(C(=O)[O-])C(=O)[O-].N.N.[Pt+2] [Carboplatin]; conditions: max 10 µM
Method in brief: (§1)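 Following 24 hours at 37°C and 5% CO2, cancer cell lines in 1536-well plates with 7.5 μl DMEM/F12 or RPMI and 10% FBS were dosed for 72 hours, final DMSO typically being 0.2%. CellTiter-Glo 2.0 luminescence, scaled between blank-well and DMSO-well means, gave the viability readout. Dose responses were fitted to a two-parameter logistic curve with a non-linear mixed effects model, and the single-agent IC50 was derived from this fit.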

[2] = compound: C1CN(CCC1(C(=O)N[C@@H](CCO)C2=CC=C(C=C2)Cl)N)C3=NC=NC4=C3C=CN4 [AZD5363]; conditions: max 10 µM
Method in brief: as §1

[3] = compound: C=CCn1c(=O)c2cnc(Nc3ccc(N4CCN(C)CC4)cc3)nc2n1-c1cccc(C(C)(C)O)n1 [AZD1775]; conditions: max 3 µM
Method in brief: as §1

[4] = compound: CC(=O)Nc1cccc(-n2c(=O)n(C3CC3)c(=O)c3c(Nc4ccc(I)cc4F)n(C)c(=O)c(C)c32)c1 [Trametinib]; conditions: max 1 µM
Method in brief: as §1

[5] = compound: CC(=O)O[C@H]1C(=O)[C@@]2(C)[C@H]([C@H](OC(=O)c3ccccc3)[C@]3(O)C[C@H](OC(=O)[C@H](O)[C@@H](NC(=O)c4ccccc4)c4ccccc4)C(C)=C1C3(C)C)[C@]1(OC(C)=O)CO[C@@H]1C[C@@H]2O [Paclitaxel]; conditions: max 3 µM
Method in brief: as §1

[6] = compound: CC(=O)c1c(C)c2cnc(Nc3ccc(N4CCNCC4)cn3)nc2n(C2CCCC2)c1=O [Palbociclib]; conditions: max 10 µM
Method in brief: as §1

[7] = compound: CC(C)n1c(=O)n(C)c2cnc3cc(F)c(-c4ccc(OCCCN5CCCCC5)nc4)cc3c21 [AZD1390]; conditions: max 0.3 µM
Method in brief: as §1

[8] = compound: CC1(C)CCC(CN2CCN(c3ccc(C(=O)NS(=O)(=O)c4ccc(NCC5CCOCC5)c([N+](=O)[O-])c4)c(Oc4cnc5[nH]ccc5c4)c3)CC2)=C(c2ccc(Cl)cc2)C1 [Venetoclax]; conditions: max 1 µM
Method in brief: as §1

[9] = compound: CC1=C(C(=CC=C1)Cl)NC(=O)C2=CN=C(S2)NC3=CC(=NC(=N3)C)N4CCN(CC4)CCO [Dasatinib]; conditions: max 2 µM
Method in brief: as §1

[10] = compound: CC1=CN2[C@@H](C1)C=NC3=CC(=C(C=C3C2=O)OC)OCCCCCOC4=C(C=C5C(=C4)N=C[C@@H]6CC(=CN6C5=O)C)OC [SG3199]; conditions: max 0.001 µM
Method in brief: as §1

[11] = compound: CCN(CCO)CCCOc1ccc2c(Nc3cc(CC(=O)Nc4cccc(F)c4)[nH]n3)ncnc2c1 [AZD2811]; conditions: max 1 µM
Method in brief: as §1

[12] = compound: CCc1c2c(nc3ccc(O)cc13)-c1cc3c(c(=O)n1C2)COC(=O)[C@]3(O)CC [SN-38]; conditions: max 0.3 µM
Method in brief: as §1

[13] = compound: CN(C)CCCOc1ccc(-c2ccc3ncc4c(c3c2)n(C2CCOCC2)c(=O)n4C)cn1 [AZD0156]; conditions: max 3 µM
Method in brief: as §1

[14] = compound: CN(CC[C@H](CSC1=CC=CC=C1)NC2=C(C=C(C=C2)S(=O)(=O)NC(=O)C3=CC=C(C=C3)N4CCC(CC4)[C@H](C5=CC=CC=C5C6=CC=C(C=C6)Cl)O)S(=O)(=O)C(F)(F)F)CCO [AZD4320]; conditions: max 1 µM
Method in brief: as §1

[15] = compound: COc1cc(Nc2ncc3c(n2)-c2ccc(Cl)cc2C(c2c(F)cccc2OC)=NC3)ccc1C(=O)O [Alisertib]; conditions: max 10 µM
Method in brief: as §1

[16] = compound: COc1cc([C@@H]2c3cc4c(cc3[C@@H](O[C@@H]3O[C@@H]5CO[C@@H](C)O[C@H]5[C@H](O)[C@H]3O)[C@H]3COC(=O)[C@H]23)OCO4)cc(OC)c1O [Etoposide]; conditions: max 10 µM
Method in brief: as §1

[17] = compound: COc1cc2ncnc(Nc3ccc(F)c(Cl)c3)c2cc1OCCCN1CCOCC1 [Gefitinib]; conditions: max 10 µM
Method in brief: as §1

[18] = compound: COc1cccc(OCCCN)c1-c1cc(Nc2cnc(C#N)cn2)n[nH]1 [Prexasertib]; conditions: max 1 µM
Method in brief: as §1

[19] = compound: COc1cccc2c1C(=O)c1c(O)c3c(c(O)c1C2=O)C[C@@](O)(C(=O)CO)C[C@@H]3O[C@H]1C[C@H](N)[C@H](O)[C@H](C)O1 [Doxorubicin]; conditions: max 1 µM
Method in brief: as §1

[20] = compound: COc1nnc2ccc(N3CCC(c4ccc(OCCN5CCN(C)C(=O)[C@H]5C)cc4)CC3)nn12 [AZD5153]; conditions: max 1 µM
Method in brief: as §1

[21] = compound: CS(=O)(=O)CCNCc1ccc(-c2ccc3ncnc(Nc4ccc(OCc5cccc(F)c5)c(Cl)c4)c3c2)o1 [Lapatinib]; conditions: max 10 µM
Method in brief: as §1

[22] = compound: C[C@@H](Nc1cc(F)cc(F)c1)c1cc(C(=O)N(C)C)cc2c(=O)cc(N3CCOCC3)oc12 [AZD8186]; conditions: max 10 µM
Method in brief: as §1

[23] = compound: C[C@@H](Oc1cc(-c2cnn(C3CCNCC3)c2)cnc1N)c1c(Cl)ccc(F)c1Cl [Crizotinib]; conditions: max 10 µM
Method in brief: as §1

[24] = compound: C[C@@H](c1ccc2nccn2c1)n1nnc2ncc(-c3cnn(C)c3)nc21 [Savolitinib]; conditions: max 1 µM
Method in brief: as §1

[25] = compound: C[C@@H]1COCCN1C2=NC(=NC(=C2)C3(CC3)[S@](=N)(=O)C)C4=C5C=CNC5=NC=C4 [AZD6738]; conditions: max 10 µM
Method in brief: as §1

[26] = compound: Cc1c2c(nn1C)CSCc1cc(n(C)n1)CSc1cc(c3ccccc3c1)OCCCc1c(C(=O)O)n(C)c3c-2c(Cl)ccc13 [AZD5991]; conditions: max 1 µM
Method in brief: as §1

[27] = compound: Cc1cc2ncnn2cc1Nc1ncc2c(n1)n(C1CCOCC1)c(=O)n2C [AZD7648]; conditions: max 10 µM
Method in brief: as §1

[28] = compound: Cc1nc(-c2cn3c(n2)-c2ccc(-c4cnn(C(C)(C)C(N)=O)c4)cc2OCC3)n(C(C)C)n1 [Taselisib]; conditions: max 10 µM
Method in brief: as §1

[29] = compound: Cn1cnc2c(F)c(Nc3ccc(Br)cc3Cl)c(C(=O)NOCCO)cc21 [Selumetinib]; conditions: max 10 µM
Method in brief: as §1

[30] = compound: N#Cc1cnc(Nc2cc(NC[C@H]3CNCCO3)c(C(F)(F)F)cn2)cn1 [SRA737]; conditions: max 10 µM
Method in brief: as §1

[31] = compound: NC1(c2ccc(-c3nc4ccn5c(=O)[nH]nc5c4cc3-c3ccccc3)cc2)CCC1 [MK-2206]; conditions: max 10 µM
Method in brief: as §1

[32] = compound: Nc1ccn([C@@H]2O[C@H](CO)[C@@H](O)C2(F)F)c(=O)n1 [Gemcitabine]; conditions: max 0.3 µM
Method in brief: as §1

[33] = compound: O=C(Nc1ccc2[nH]nc(-c3ccncc3)c2c1)[C@@H]1CCN(CC(=O)N2CCN(c3ccc(-c4ncccn4)cc3)CC2)C1; conditions: max 5 µM
Method in brief: as §1

[34] = compound: O=C(c1cc(Cc2n[nH]c(=O)c3ccccc23)ccc1F)N1CCN(C(=O)C2CC2)CC1 [Olaparib]; conditions: max 10 µM
Method in brief: as §1

[35] = compound: O=c1[nH]cc(F)c(=O)[nH]1 [5-Fluorouracil]; conditions: max 20 µM
Method in brief: as §1

With WSU-NHL (B-Cell Non-Hodgkin's Lymphoma) the “IC50, cell viability 72 h” value [1] was > 10000 nM, the “IC50, cell viability 72 h” value [2] was 809 nM and the “IC50, cell viability 72 h” value [3] was 410 nM. The “IC50, cell viability 72 h” value [4] was > 1000 nM, the “IC50, cell viability 72 h” value [5] was < 3 nM and the “IC50, cell viability 72 h” value [6] was 1280 nM. For the same cell line, the “IC50, cell viability 72 h” value [7] was > 300 nM, the “IC50, cell viability 72 h” value [8] was 64.2 nM and the “IC50, cell viability 72 h” value [9] was 12.6 nM. For the same cell line, the “IC50, cell viability 72 h” value [10] was > 1 nM, the “IC50, cell viability 72 h” value [11] was 134 nM and the “IC50, cell viability 72 h” value [12] was 2.41 nM. The “IC50, cell viability 72 h” value [13] was > 3000 nM, the “IC50, cell viability 72 h” value [14] was 81.4 nM and the “IC50, cell viability 72 h” value [15] was 73.6 nM. The “IC50, cell viability 72 h” value [16] was 160 nM, the “IC50, cell viability 72 h” value [17] was > 10000 nM and the “IC50, cell viability 72 h” value [18] was 15.2 nM. For the same cell line, the “IC50, cell viability 72 h” value [19] was 14.2 nM, the “IC50, cell viability 72 h” value [20] was 45.9 nM and the “IC50, cell viability 72 h” value [21] was 9550 nM. For the same cell line, the “IC50, cell viability 72 h” value [22] was 397 nM, the “IC50, cell viability 72 h” value [23] was 4520 nM and the “IC50, cell viability 72 h” value [24] was > 1000 nM. For the same cell line, the “IC50, cell viability 72 h” value [25] was 998 nM, the “IC50, cell viability 72 h” value [26] was 321 nM and the “IC50, cell viability 72 h” value [27] was > 10000 nM. For the same cell line, the “IC50, cell viability 72 h” value [28] was 70.5 nM, the “IC50, cell viability 72 h” value [29] was > 10000 nM and the “IC50, cell viability 72 h” value [30] was 2310 nM. The “IC50, cell viability 72 h” value [31] was 543 nM, the “IC50, cell viability 72 h” value [32] was 5.25 nM and the “IC50, cell viability 72 h” value [33] was > 5000 nM. The “IC50, cell viability 72 h” value [34] was 7070 nM and the “IC50, cell viability 72 h” value [35] was 5460 nM.

YAPC (Pancreatic Carcinoma) was tested, and the “IC50, cell viability 72 h” value [1] was > 10000 nM, the “IC50, cell viability 72 h” value [2] was > 10000 nM and the “IC50, cell viability 72 h” value [3] was > 3000 nM. The “IC50, cell viability 72 h” value [4] was > 1000 nM, the “IC50, cell viability 72 h” value [5] was > 3000 nM and the “IC50, cell viability 72 h” value [6] was > 10000 nM. For the same cell line, the “IC50, cell viability 72 h” value [7] was > 300 nM, the “IC50, cell viability 72 h” value [8] was > 1000 nM and the “IC50, cell viability 72 h” value [9] was > 2000 nM. For the same cell line, the “IC50, cell viability 72 h” value [10] was > 1 nM, the “IC50, cell viability 72 h” value [11] was > 1000 nM and the “IC50, cell viability 72 h” value [12] was 113 nM. The “IC50, cell viability 72 h” value [13] was > 3000 nM, the “IC50, cell viability 72 h” value [14] was > 1000 nM and the “IC50, cell viability 72 h” value [15] was > 10000 nM. For the same cell line, the “IC50, cell viability 72 h” value [16] was > 10000 nM, the “IC50, cell viability 72 h” value [17] was > 10000 nM and the “IC50, cell viability 72 h” value [18] was 641 nM. The “IC50, cell viability 72 h” value [19] was > 1000 nM, the “IC50, cell viability 72 h” value [20] was > 1000 nM and the “IC50, cell viability 72 h” value [21] was > 10000 nM. For the same cell line, the “IC50, cell viability 72 h” value [22] was > 10000 nM, the “IC50, cell viability 72 h” value [23] was > 10000 nM and the “IC50, cell viability 72 h” value [24] was > 1000 nM. The “IC50, cell viability 72 h” value [25] was > 10000 nM, the “IC50, cell viability 72 h” value [26] was > 1000 nM and the “IC50, cell viability 72 h” value [27] was > 10000 nM. The “IC50, cell viability 72 h” value [28] was > 10000 nM, the “IC50, cell viability 72 h” value [29] was > 10000 nM and the “IC50, cell viability 72 h” value [30] was > 10000 nM. For the same cell line, the “IC50, cell viability 72 h” value [31] was > 10000 nM, the “IC50, cell viability 72 h” value [32] was 212 nM and the “IC50, cell viability 72 h” value [33] was > 5000 nM. For the same cell line, the “IC50, cell viability 72 h” value [34] was > 10000 nM and the “IC50, cell viability 72 h” value [35] was > 20000 nM.
